Tested on: SMN2 full length and Δ7 mRNA
Assay: Endogenous SMN2 mRNA RT-qPCR splicing assay in cultured cells (GM03813 SMA patient cells)
Type: cell-based, human
Conditions: Type 1 SMA patient fibroblasts GM03813, increasing concentrations, 24 hr, RT-qPCR (FIG. 4)
Procedure: The reverse transcription-quantitative PCR-based (RT-qPCR) assay is used to quantify the levels of the SMN2 full length and Δ7 mRNA in primary cells and cell lines containing the SMN2 gene treated with a test compound.
GM03813 SMA patient cells (5,000 cells/well) are seeded in 200 μL, of cell culture medium (DMEM plus 10% FBS) in 96-well flat-bottom plates and the plate is immediately swirled to ensure proper dispersal of cells, forming an even monolayer of cells. Cells are allowed to attach for at least 4-6 hrs. Test compounds are serially diluted 3.16-fold in 100% DMSO to generate a 7-point concentration curve. A solution of test compound (1 μL, 200× in DMSO) is added to each test well and 1 μL, DMSO is added to each control well. The plate is incubated for 24 hrs in a cell culture incubator (37° C., 5% CO2, 100% relative humidity). The cells are then lysed in Cells-To-Ct lysis buffer and the lysate is stored at 80° C.
SMN2-specific spliced products and GAPDH mRNA are identified using the following primers and probes in Table 5. Primer SMN FL Forward B (SEQ ID NO. 7) hybridizes to a nucleotide sequence in exon 7 (nucleotide 32 to nucleotide 54) and exon 8 (nucleotide 1 to nucleotide 4), primer SMN Δ7 Forward B (SEQ ID NO. 8) hybridizes to a nucleotide sequence in exon 6 (nucleotide 87 to nucleotide 111) and exon 8 (nucleotide 1 to nucleotide 3), primer SMN Reverse B (SEQ ID NO. 9) hybridizes to a nucleotide sequence in exon 8 (nucleotide 39 to nucleotide 62), probe SMN Probe B (SEQ ID NO. 10) hybridizes to a nucleotide sequence in exon 8 (nucleotide 7 to nucleotide 36). These primers and probes hybridize to nucleotide sequences common to human SMN1 and SMN2 mRNA. Since the SMA patient cells used in Example 3 contain only the SMN2 gene, RT-qPCR can quantify only SMN2 full-length and Δ7 mRNA.
The SMN forward and reverse primers are used at final concentrations of 0.4 μM. The SMN probe is used at a final concentration of 0.15 μM. GAPDH primers are used at final concentrations of 0.1 μM and the probe at 0.075 μM. […]
The increase of SMN2 FL and decrease in SMN2 Δ7 mRNA relative to those in cells treated with vehicle control are determined from real-time PCR data using a modified ΔΔCt method (as described in Livak and Schmittgen, Methods, 2001, 25:402-8). The amplification efficiency (E) is calculated from the slope of the amplification curve for SMN2 FL, SMN2 Δ7, and GAPDH individually. The abundances of SMN2 FL, SMN2 Δ7, and GAPDH are then calculated as (1+E)^−Ct, where Ct is the threshold value for each amplicon. […]

## CN1CCN(c2ccc3cc(-c4nc5c(Cl)cccc5s4)c(=O)oc3n2)CC1 [Cpd 5, 3-(4-chloro-1,3-benzothiazol-2-yl)-7-(4-methylpiperazin-1-yl)-2H-pyrano[2,3-b]pyridin-2-one]
  SMN2 FL mRNA relative to vehicle: progressively more SMN2 FL mRNA
  SMN2 Δ7 mRNA relative to vehicle: less SMN2 Δ7 mRNA

## Cc1ccc2nc(-c3cc4ccc(N5CCN(C)CC5)nc4oc3=O)cn2c1 [Cpd 27, 3-(6-methylimidazo[1,2-a]pyridin-2-yl)-7-(4-methylpiperazin-1-yl)-2H-pyrano[2,3-b]pyridin-2-one]
  SMN2 FL mRNA relative to vehicle: progressively more SMN2 FL mRNA
  SMN2 Δ7 mRNA relative to vehicle: less SMN2 Δ7 mRNA

— US9371336B2, “Compounds for treating spinal muscular atrophy” (PTC Therapeutics Inc., priority 2012, dated 2016)
